Numbers after ± are expanded uncertainties.
Test: mn = molality of the nth substance listed, in mol/kg
Conditions: 100 kPa, Liquid; for speed of sound: Frequency=3 MHz, Sing-around technique in a fixed-path interferometer; for mass density: Vibrating tube method

O [water] + O=C[C@H](O)[C@@H](O)[C@H](O)[C@H](O)CO
speed of sound (313.15 K, m2 = 0): 1528.9 ± 1.9 m/s
speed of sound (318.15 K, m2 = 0): 1536.6 ± 1.9 m/s
mass density (323.15 K, m2 = 0): 988.031 ± 0.45 kg/m3

CCC[NH3+].O=C[O-] [propylammonium formate] + O
speed of sound (293.15 K, m1 = 0.1): 1492.2 ± 1.9 m/s
speed of sound (293.15 K, m1 = 0.2): 1500.4 ± 1.9 m/s
speed of sound (293.15 K, m1 = 0.3): 1508.2 ± 1.9 m/s
speed of sound (293.15 K, m1 = 0.4): 1516.9 ± 1.9 m/s
mass density (293.15 K, m1 = 0.1): 999.222 ± 0.46 kg/m3
mass density (293.15 K, m1 = 0.2): 1000.07 ± 0.46 kg/m3
mass density (293.15 K, m1 = 0.3): 1000.91 ± 0.46 kg/m3
mass density (293.15 K, m1 = 0.4): 1001.81 ± 0.46 kg/m3
speed of sound (298.15 K, m1 = 0.1): 1505.7 ± 1.9 m/s
speed of sound (298.15 K, m1 = 0.2): 1513.4 ± 1.9 m/s
speed of sound (298.15 K, m1 = 0.3): 1520.8 ± 1.9 m/s
speed of sound (298.15 K, m1 = 0.4): 1528.9 ± 1.9 m/s
mass density (298.15 K, m1 = 0.1): 997.851 ± 0.45 kg/m3
mass density (298.15 K, m1 = 0.2): 998.673 ± 0.45 kg/m3
mass density (298.15 K, m1 = 0.3): 999.689 ± 0.46 kg/m3
mass density (298.15 K, m1 = 0.4): 1000.56 ± 0.46 kg/m3
speed of sound (303.15 K, m1 = 0.1): 1517.5 ± 1.9 m/s
speed of sound (303.15 K, m1 = 0.2): 1524.9 ± 1.9 m/s
speed of sound (303.15 K, m1 = 0.3): 1531.8 ± 1.9 m/s
speed of sound (303.15 K, m1 = 0.4): 1539.4 ± 1.9 m/s
mass density (303.15 K, m1 = 0.1): 996.637 ± 0.46 kg/m3
mass density (303.15 K, m1 = 0.2): 997.448 ± 0.46 kg/m3
mass density (303.15 K, m1 = 0.3): 998.238 ± 0.45 kg/m3
mass density (303.15 K, m1 = 0.4): 999.087 ± 0.46 kg/m3
speed of sound (308.15 K, m1 = 0.1): 1527.8 ± 1.9 m/s
speed of sound (308.15 K, m1 = 0.2): 1534.7 ± 1.9 m/s
speed of sound (308.15 K, m1 = 0.3): 1541.3 ± 1.9 m/s
speed of sound (308.15 K, m1 = 0.4): 1548.4 ± 1.9 m/s
mass density (308.15 K, m1 = 0.1): 994.884 ± 0.45 kg/m3
mass density (308.15 K, m1 = 0.2): 995.676 ± 0.45 kg/m3
mass density (308.15 K, m1 = 0.3): 996.581 ± 0.45 kg/m3
mass density (308.15 K, m1 = 0.4): 997.41 ± 0.45 kg/m3
speed of sound (313.15 K, m1 = 0.1): 1536.4 ± 1.9 m/s
speed of sound (313.15 K, m1 = 0.2): 1543 ± 1.9 m/s
speed of sound (313.15 K, m1 = 0.3): 1549.3 ± 1.9 m/s
speed of sound (313.15 K, m1 = 0.4): 1555.9 ± 1.9 m/s
mass density (313.15 K, m1 = 0.1): 993.191 ± 0.45 kg/m3
mass density (313.15 K, m1 = 0.2): 993.97 ± 0.45 kg/m3
mass density (313.15 K, m1 = 0.3): 994.725 ± 0.45 kg/m3
mass density (313.15 K, m1 = 0.4): 995.542 ± 0.45 kg/m3
speed of sound (318.15 K, m1 = 0.1): 1543.6 ± 1.9 m/s
speed of sound (318.15 K, m1 = 0.2): 1549.9 ± 1.9 m/s
speed of sound (318.15 K, m1 = 0.3): 1555.9 ± 1.9 m/s
speed of sound (318.15 K, m1 = 0.4): 1562 ± 1.9 m/s
mass density (318.15 K, m1 = 0.1): 990.986 ± 0.45 kg/m3
mass density (318.15 K, m1 = 0.2): 991.749 ± 0.45 kg/m3
mass density (318.15 K, m1 = 0.3): 992.694 ± 0.45 kg/m3
mass density (318.15 K, m1 = 0.4): 993.502 ± 0.45 kg/m3
speed of sound (323.15 K, m1 = 0.1): 1550.5 ± 1.9 m/s
speed of sound (323.15 K, m1 = 0.2): 1555.4 ± 1.9 m/s
speed of sound (323.15 K, m1 = 0.3): 1561.1 ± 1.9 m/s
speed of sound (323.15 K, m1 = 0.4): 1566.9 ± 1.9 m/s
mass density (323.15 K, m1 = 0.1): 988.793 ± 0.45 kg/m3
mass density (323.15 K, m1 = 0.2): 989.611 ± 0.45 kg/m3
mass density (323.15 K, m1 = 0.3): 990.498 ± 0.45 kg/m3
mass density (323.15 K, m1 = 0.4): 991.295 ± 0.45 kg/m3

O [water] + CCC[NH3+].O=C[O-]
speed of sound (313.15 K, m2 = 0): 1528.9 ± 1.9 m/s
speed of sound (318.15 K, m2 = 0): 1536.6 ± 1.9 m/s
mass density (323.15 K, m2 = 0): 988.031 ± 0.45 kg/m3

O=C[C@H](O)[C@@H](O)[C@H](O)[C@H](O)CO [D-glucose] + O
speed of sound (293.15 K, m1 = 0.0698): 1487 ± 1.9 m/s
speed of sound (293.15 K, m1 = 0.09118): 1488.3 ± 1.9 m/s
speed of sound (293.15 K, m1 = 0.1108): 1489.5 ± 1.9 m/s
speed of sound (293.15 K, m1 = 0.1312): 1490.8 ± 1.9 m/s
mass density (293.15 K, m1 = 0.05008): 1001.67 ± 0.46 kg/m3
mass density (293.15 K, m1 = 0.0698): 1003.02 ± 0.46 kg/m3
mass density (293.15 K, m1 = 0.09118): 1004.47 ± 0.46 kg/m3
mass density (293.15 K, m1 = 0.1108): 1005.8 ± 0.46 kg/m3
speed of sound (298.15 K, m1 = 0.0698): 1501.4 ± 1.9 m/s
speed of sound (298.15 K, m1 = 0.09118): 1502.7 ± 1.9 m/s
speed of sound (298.15 K, m1 = 0.1108): 1504 ± 1.9 m/s
speed of sound (298.15 K, m1 = 0.1312): 1505.3 ± 1.9 m/s
mass density (298.15 K, m1 = 0.05008): 1000.44 ± 0.46 kg/m3
mass density (298.15 K, m1 = 0.0698): 1001.76 ± 0.46 kg/m3
mass density (298.15 K, m1 = 0.09118): 1003.17 ± 0.46 kg/m3
mass density (298.15 K, m1 = 0.1108): 1004.47 ± 0.46 kg/m3
mass density (298.15 K, m1 = 0.1312): 1005.8 ± 0.46 kg/m3
speed of sound (303.15 K, m1 = 0.05008): 1512.2 ± 1.9 m/s
speed of sound (303.15 K, m1 = 0.0698): 1513.4 ± 1.9 m/s
speed of sound (303.15 K, m1 = 0.09118): 1514.7 ± 1.9 m/s
speed of sound (303.15 K, m1 = 0.1108): 1515.9 ± 1.9 m/s
speed of sound (303.15 K, m1 = 0.1312): 1517.2 ± 1.9 m/s
speed of sound (303.15 K, m1 = 0.1499): 1518.3 ± 1.9 m/s
mass density (303.15 K, m1 = 0.05008): 999.038 ± 0.45 kg/m3
mass density (303.15 K, m1 = 0.0698): 1000.35 ± 0.45 kg/m3
mass density (303.15 K, m1 = 0.09118): 1001.76 ± 0.46 kg/m3
mass density (303.15 K, m1 = 0.1108): 1003.05 ± 0.46 kg/m3
mass density (303.15 K, m1 = 0.1312): 1004.38 ± 0.46 kg/m3
mass density (303.15 K, m1 = 0.1499): 1005.58 ± 0.46 kg/m3
speed of sound (308.15 K, m1 = 0.05008): 1522.8 ± 1.9 m/s
speed of sound (308.15 K, m1 = 0.0698): 1524 ± 1.9 m/s
speed of sound (308.15 K, m1 = 0.09118): 1525.4 ± 1.9 m/s
speed of sound (308.15 K, m1 = 0.1108): 1526.6 ± 1.9 m/s
speed of sound (308.15 K, m1 = 0.1499): 1529 ± 1.9 m/s
mass density (308.15 K, m1 = 0.05008): 997.396 ± 0.45 kg/m3
mass density (308.15 K, m1 = 0.0698): 998.701 ± 0.45 kg/m3
mass density (308.15 K, m1 = 0.09118): 1000.11 ± 0.45 kg/m3
mass density (308.15 K, m1 = 0.1108): 1001.39 ± 0.45 kg/m3
mass density (308.15 K, m1 = 0.1312): 1002.71 ± 0.46 kg/m3
mass density (308.15 K, m1 = 0.1499): 1003.91 ± 0.46 kg/m3
speed of sound (313.15 K, m1 = 0.05008): 1531.6 ± 1.9 m/s
speed of sound (313.15 K, m1 = 0.0698): 1532.8 ± 1.9 m/s
speed of sound (313.15 K, m1 = 0.09118): 1534 ± 1.9 m/s
speed of sound (313.15 K, m1 = 0.1108): 1535.1 ± 1.9 m/s
speed of sound (313.15 K, m1 = 0.1312): 1536.2 ± 1.9 m/s
speed of sound (313.15 K, m1 = 0.1499): 1537.3 ± 1.9 m/s
mass density (313.15 K, m1 = 0.05008): 995.571 ± 0.45 kg/m3
mass density (313.15 K, m1 = 0.0698): 996.873 ± 0.45 kg/m3
mass density (313.15 K, m1 = 0.09118): 998.274 ± 0.45 kg/m3
mass density (313.15 K, m1 = 0.1108): 999.553 ± 0.45 kg/m3
mass density (313.15 K, m1 = 0.1312): 1000.87 ± 0.45 kg/m3
mass density (313.15 K, m1 = 0.1499): 1002.06 ± 0.45 kg/m3
speed of sound (318.15 K, m1 = 0.0698): 1540.2 ± 1.9 m/s
speed of sound (318.15 K, m1 = 0.09118): 1541.4 ± 1.9 m/s
speed of sound (318.15 K, m1 = 0.1108): 1542.4 ± 1.9 m/s
speed of sound (318.15 K, m1 = 0.1499): 1544.6 ± 1.9 m/s
mass density (318.15 K, m1 = 0.05008): 993.55 ± 0.45 kg/m3
mass density (318.15 K, m1 = 0.0698): 994.845 ± 0.45 kg/m3
mass density (318.15 K, m1 = 0.09118): 996.24 ± 0.45 kg/m3
mass density (318.15 K, m1 = 0.1312): 998.817 ± 0.45 kg/m3
mass density (318.15 K, m1 = 0.1499): 1000 ± 0.45 kg/m3
speed of sound (323.15 K, m1 = 0.05008): 1545.3 ± 1.9 m/s
speed of sound (323.15 K, m1 = 0.0698): 1546.3 ± 1.9 m/s
speed of sound (323.15 K, m1 = 0.09118): 1547.4 ± 1.9 m/s
speed of sound (323.15 K, m1 = 0.1108): 1548.5 ± 1.9 m/s
speed of sound (323.15 K, m1 = 0.1312): 1549.5 ± 1.9 m/s
speed of sound (323.15 K, m1 = 0.1499): 1550.5 ± 1.9 m/s
mass density (323.15 K, m1 = 0.05008): 991.349 ± 0.45 kg/m3
mass density (323.15 K, m1 = 0.0698): 992.639 ± 0.45 kg/m3
mass density (323.15 K, m1 = 0.09118): 994.028 ± 0.45 kg/m3
mass density (323.15 K, m1 = 0.1108): 995.295 ± 0.45 kg/m3
mass density (323.15 K, m1 = 0.1312): 996.6 ± 0.45 kg/m3
mass density (323.15 K, m1 = 0.1499): 997.788 ± 0.45 kg/m3

— the NIST ThermoML archive (doi:10.1016/j.jct.2016.07.051)
